{"source": "patent US10449168B2", "about": "(The University of Toledo, priority 2015, dated 2019)", "type_in_all_cases": "biochemical", "key": {"[1]": {"target": "Streptococcus pneumoniae aspartate semialdehyde dehydrogenase (spASADH) (Streptococcus pneumoniae, UniProt Q8DQ00)", "assay": "biochemical", "conditions": "relative to parent or neighbouring derivative"}, "[2]": {"target": "T1, Vibrio cholerae aspartate semialdehyde dehydrogenase (vcASADH) (Vibrio cholerae serotype O1, UniProt P23247)", "T1 construct": "made in house", "T1 sequence (P23247 whole entry)": "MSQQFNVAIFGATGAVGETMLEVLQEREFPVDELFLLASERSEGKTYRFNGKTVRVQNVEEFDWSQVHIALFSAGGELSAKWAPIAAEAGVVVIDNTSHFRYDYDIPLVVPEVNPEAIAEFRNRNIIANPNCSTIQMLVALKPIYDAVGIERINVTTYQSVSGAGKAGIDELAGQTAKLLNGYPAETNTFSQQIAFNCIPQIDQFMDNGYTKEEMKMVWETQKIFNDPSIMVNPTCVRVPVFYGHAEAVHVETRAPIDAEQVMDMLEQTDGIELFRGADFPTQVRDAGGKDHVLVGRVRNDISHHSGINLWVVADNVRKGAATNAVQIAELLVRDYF", "assay": "biochemical", "conditions": "relative to parent or neighbouring derivative"}, "[3]": {"target": "T2, Streptococcus pneumoniae aspartate semialdehyde dehydrogenase (spASADH) (Streptococcus pneumoniae, UniProt Q8DQ00)", "T2 construct": "homodimer from general knowledge", "T2 sequence (Q8DQ00 1-358)": "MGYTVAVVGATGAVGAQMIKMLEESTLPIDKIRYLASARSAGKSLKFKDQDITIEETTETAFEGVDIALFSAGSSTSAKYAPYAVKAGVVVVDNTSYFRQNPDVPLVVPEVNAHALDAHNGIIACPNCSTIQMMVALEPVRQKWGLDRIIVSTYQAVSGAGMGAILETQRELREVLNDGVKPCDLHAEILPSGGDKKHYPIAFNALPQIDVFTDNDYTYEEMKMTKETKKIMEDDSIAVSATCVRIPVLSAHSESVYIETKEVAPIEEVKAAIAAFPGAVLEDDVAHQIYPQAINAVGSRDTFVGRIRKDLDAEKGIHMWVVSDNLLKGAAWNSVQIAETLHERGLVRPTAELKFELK", "assay": "spASADH kinetic assay: reverse direction, NADPH absorbance at 340 nm; Ki from Dixon plot assuming competitive inhibition against ASA", "conditions": "FIG. 5, Table 2; pH 8.6, r.t., 0.15 mM ASA, 1.5 mM NADP, 20 mM phosphate"}, "[4]": {"target": "Vibrio cholerae aspartate semialdehyde dehydrogenase (vcASADH)", "assay": "vcASADH kinetic assay: reverse direction, NADPH absorbance at 340 nm; Ki from Dixon plot assuming competitive inhibition against ASA", "conditions": "FIG. 5, Table 2; pH 8.6, r.t., 0.3 mM ASA, 1.5 mM NADP, 20 mM phosphate"}, "[5]": {"target": "T3, aspartate N-acetyltransferase (ANAT) (Homo sapiens, UniProt Q8N9F0)", "T3 sequence (Q8N9F0 1-302)": "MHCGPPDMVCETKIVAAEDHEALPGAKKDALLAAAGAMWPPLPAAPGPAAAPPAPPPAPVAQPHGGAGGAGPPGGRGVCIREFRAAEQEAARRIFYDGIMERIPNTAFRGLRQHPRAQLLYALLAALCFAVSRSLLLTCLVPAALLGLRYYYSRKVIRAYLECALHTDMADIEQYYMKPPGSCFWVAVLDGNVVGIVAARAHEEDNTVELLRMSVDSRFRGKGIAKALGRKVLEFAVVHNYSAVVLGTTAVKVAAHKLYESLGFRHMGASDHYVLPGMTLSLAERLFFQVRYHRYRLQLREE", "assay": "ANAT substrate selectivity (acetyl group acceptor)", "conditions": "glutamate vs. aspartate as acetyl acceptor", "excerpt": "ANAT is difficult to purify."}}, "data": [{"compound": "O=C(O)CN(Cc1ccc(C(=O)O)c(C(=O)O)c1)Cc1ccccc1C(F)(F)F", "note": "[Compound 24, N-(2-trifluoromethylbenzyl)-N-carboxymethyl-3,4-dicarboxybenzylamine]", "values": [{"measurement": "inhibition / binding affinity for spASADH (in words)", "setting": "[1]", "value": "did not alter the affinity"}, {"measurement": "inhibition / binding affinity for vcASADH (in words)", "setting": "[2]", "value": "did not alter the affinity"}, {"measurement": "Ki", "setting": "[3]", "value": "509 ± 29", "unit": "µM"}, {"measurement": "Ki", "setting": "[4]", "value": "727 ± 60", "unit": "µM"}]}, {"compound": "O=C(O)CN(Cc1cccc(C(F)(F)F)c1)Cc1ccc(C(=O)O)c(C(=O)O)c1", "note": "[Compound 25, N-(3-trifluoromethylbenzyl)-N-carboxymethyl-3,4-dicarboxybenzylamine]", "values": [{"measurement": "inhibition / binding affinity for spASADH (in words)", "setting": "[1]", "value": "did not alter the affinity"}, {"measurement": "inhibition / binding affinity for vcASADH (in words)", "setting": "[2]", "value": "did not alter the affinity"}, {"measurement": "Ki", "setting": "[3]", "value": "441 ± 27", "unit": "µM"}, {"measurement": "Ki", "setting": "[4]", "value": "678 ± 36", "unit": "µM"}]}, {"compound": "O=C(O)CN(Cc1ccc(C(=O)O)c(C(=O)O)c1)Cc1ccccc1OC(F)(F)F", "note": "[Compound 27, N-(2-trifluoromethyoxybenzyl)-N-carboxymethyl-3,4-dicarboxybenzylamine]", "values": [{"measurement": "inhibition / binding affinity for spASADH (in words)", "setting": "[1]", "value": "did not alter the affinity"}, {"measurement": "inhibition / binding affinity for vcASADH (in words)", "setting": "[2]", "value": "did not alter the affinity"}, {"measurement": "Ki", "setting": "[3]", "value": "540 ± 32", "unit": "µM"}, {"measurement": "Ki", "setting": "[4]", "value": "708 ± 47", "unit": "µM"}]}, {"compound": "O=C(O)CN(Cc1cccc(OC(F)(F)F)c1)Cc1ccc(C(=O)O)c(C(=O)O)c1", "note": "[Compound 28, N-(3-trifluoromethoxybenzyl)-N-carboxymethyl-3,4-dicarboxybenzylamine]", "values": [{"measurement": "inhibition / binding affinity for spASADH (in words)", "setting": "[1]", "value": "did not alter the affinity"}, {"measurement": "inhibition / binding affinity for vcASADH (in words)", "setting": "[2]", "value": "did not alter the affinity"}, {"measurement": "Ki", "setting": "[3]", "value": "427 ± 31", "unit": "µM"}, {"measurement": "Ki", "setting": "[4]", "value": "684 ± 35", "unit": "µM"}]}, {"compound": "N[C@@H](CCC(=O)O)C(=O)O", "note": "[glutamate]", "values": [{"measurement": "catalytic efficiency relative to that of the physiological substrate", "setting": "[5]", "value": "less than 1%"}]}]}
